Experimental data published in US12708676B2, “Phosphate compounds for detecting neurological disorders” (Amydis, Inc., priority 2018, dated 2026).

Legend:
Aβ plaques = Aβ plaques (Homo sapiens, UniProt P05067); experiment: Example 7: ex vivo staining of human Alzheimer's disease tissue, co-localization with 6E10
alpha-synuclein = alpha-synuclein (Homo sapiens, UniProt P37840); experiment: Example 9: ex vivo flatmount staining of human retinas with Compound 7 and SYN-1 Ab; type: binding; details: for Average No. of co-stained objects / Average No. of singly-stained objects: PD retina, per ~250,000 μm^2 area; for Average No. of co-stained objects: co-stained with SYN-1; for Co-localization with alpha-synuclein (SYN-1 Ab): 60 μM Compound 7
Description: To understand if Compound 7 (active drug) can detect retinal α-syn in human eyes, human retinal tissue was extracted post-mortem from both a healthy patient and a patient diagnosed with Parkinson's Disease, and stained with Compound 7, DAPI and a SYN1 antibody.
Eye dissection: Cornea, iris and lens were removed from the eye cup and the eye placed into 4% PFA for 1 hour. […] The different regions were mounted on separate slides.
Flatmount retinal staining: The tissue was fixed in room temperature 4% PFA for 20 minutes, washed, permeabilized, blocked (2.5% goat serum in PBST), stained with Alpha-synuclein antibody (SYN-1) at a dilution of 1:1000 and incubate overnight at 4° C., washed with PBST (3 times for 5 minutes), incubated with secondary antibody (Alexa fluor 647 anti-mouse) in dark for 1 hr at RT. The tissue was then washed with PB ST (3 times for 5 minutes), incubated with 60 μM Compound 7 for 30 minutes at RT, washed with PBS (3 times for 10 minutes), incubate with DAPI (300 nM or 100 ng/mL) in dark for 10 minutes, and washed with PBS (3 times for 5 minutes). The tissue was then mounted using antifade DAKO mounting media.
To determine the number of objects co-stained with Compound 7 and SYN1, the average number of objects co-stained with Compound 7 and SYN1 was quantified. This was completed for each quadrant of both the left and right eye (Table 10 and Table 11).

Aβ plaques, sequence (P05067 672-713 limits assumed): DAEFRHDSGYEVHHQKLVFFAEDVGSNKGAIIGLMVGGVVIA

N#C/C(=C\c1ccc2cc(N3CCCCC3)ccc2c1)C(=O)NCCOCCOCCO [Compound 7, (E)-2-cyano-N-(2-(2-(2-hydroxyethoxy)ethoxy)ethyl)-3-(6-(piperidin-1-yl)naphthalen-2-yl)acrylamide]
Binding to Aβ plaques in human tissue (Aβ plaques; brain and retinal tissue of human Alzheimer's patients): bind to Aβ plaques in both brain and retinal tissue | Detection of aggregated Aβ ex vivo (Aβ plaques; ex vivo, human Alzheimer's brain tissue): demonstrated the ability to detect aggregated Aβ | Average No. of co-stained objects (alpha-synuclein; left eye, Inferior): 13.6 | Average No. of singly-stained objects (alpha-synuclein; left eye, Inferior): 0.87 | Average No. of co-stained objects (alpha-synuclein; left eye, Nasal): 13 | Average No. of singly-stained objects (alpha-synuclein; left eye, Nasal): 0.75 | Average No. of co-stained objects (alpha-synuclein; left eye, Superior): 20 | Average No. of singly-stained objects (alpha-synuclein; left eye, Superior): 0.25 | Average No. of co-stained objects (alpha-synuclein; left eye, Temporal): 12.37 | Average No. of singly-stained objects (alpha-synuclein; left eye, Temporal): 0.5 | Average No. of co-stained objects (alpha-synuclein; right eye, Inferior): 12.12 | Average No. of singly-stained objects (alpha-synuclein; right eye, Inferior): 0.75 | Average No. of co-stained objects (alpha-synuclein; right eye, Nasal): 14.3 | Average No. of singly-stained objects (alpha-synuclein; right eye, Nasal): 1.75 | Average No. of co-stained objects (alpha-synuclein; right eye, Superior): 16 | Average No. of singly-stained objects (alpha-synuclein; right eye, Superior): 0.5 | Average No. of co-stained objects (alpha-synuclein; right eye, Temporal): 11.62 | Average No. of singly-stained objects (alpha-synuclein; right eye, Temporal): 0.5 | Co-localization with alpha-synuclein (SYN-1 Ab) (alpha-synuclein; post-mortem retinas of healthy human patient): very little or no co-localization | Co-localization with alpha-synuclein (SYN-1 Ab) (alpha-synuclein; post-mortem retinas of human PD patient): co-localization of Compound 7 and Alpha-Synuclein deposits (SYN-1 Ab) in all regions
